Our source for the LogP and chromatographic logP values is patent EP4295688A1, “ACTIVE COMPOUND COMBINATION” (Bayer Aktiengesellschaft, priority 2022, dated 2023).

SMILES strings stand for the structures. Like-named read-outs stand apart in the source and are kept apart here.

What is called LogP is a log measure of how a compound divides between an organic and an aqueous phase. Broadly, the chromatographic logP is lipophilicity estimated from chromatographic retention.

A short description of the data set: Measurement of LogP values by HPLC on reversed phase columns (EEC directive 79/831 Annex V.A8). The conditions noted are these: for chromatographic logP: reversed-phase HPLC column (Agilent Zorbax Eclipse C18). In kind it is physicochemical. The method, then:
Measurement of LogP values was performed according to EEC directive 79/831 Annex V.A8 by HPLC (High Performance Liquid Chromatography) on reversed phase columns (Agilent Zorbax Eclipse C18) with the following methods: • ^[a] LogP value is determined by measurement of LC-UV and/or MS and/or ELS, in an acidic range, with 0.1% formic acid in water and acetonitrile as eluent (linear gradient from 10% acetonitrile to 95% acetonitrile). • ^[b] LogP value is determined by measurement of LC-UV and/or MS and/or ELS, in a neutral range, with 0.001 molar ammonium acetate solution in water and acetonitrile as eluent (linear gradient from 10% acetonitrile to 95% acetonitrile). If more than one LogP value is available within the same method, all the values are given and separated by "+". Calibration was done with straight-chain alkan2-ones (with 3 to 16 carbon atoms) with known LogP values (measurement of LogP values using retention times with linear interpolation between successive alkanones). Lambda-max-values were determined using UV-spectra from 200 nm to 400 nm and the peak values of the chromatographic signals.

Where [1] appears, read: [Method A] as printed in the preparation examples (taken as method [a], acidic range).
Setting [2] is: method [a]: acidic range, 0.1% formic acid in water and acetonitrile as eluent (linear gradient 10% to 95% acetonitrile).

As to `CCOC(=O)c1cnn(Cc2ccc(-c3noc(C(F)(F)Cl)n3)cc2F)c1` [1.01, ethyl 1-(4-{5-[chloro(difluoro)methyl]-1,2,4-oxadiazol-3-yl}-2-fluorobenzyl)-1H-pyrazole-4-carboxytate], the LogP is 3.98^[a].
For `FC(F)(Cl)c1nc(-c2ccc(CBr)cc2)no1` [VIII'-c, 3-[4-(Bromomethyl)phenyl]-5-(chlorodifluoromethyl)-1,2,4-oxadiazole], the chromatographic logP runs as follows: under setting [1], 4.48; under setting [2], 4.48.
With `CONCc1ccc(-c2noc(C(F)(F)Cl)n2)cc1` [V-a, 1-[4-[5-[Chloro(difluoro)methyl]-1.2.4-oxadiazol-3-yl]phenyl]-N-methoxy-methanamine], the chromatographic logP was determined as 3.09 under setting [1] and 3.09 under setting [2].
On to `OCc1ccc(-c2noc(C(F)(F)Cl)n2)cc1F` [VIII"-a, (4-{5-[chloro(difluoro)methyl]-1,2,4-oxadiazol-3-yl}-2-fluorophenyl)methanol], for which the chromatographic logP under setting [1] turned out to be 2.98 and the chromatographic logP under setting [2] stood at 2.98.
`CCOC(=O)c1cnn(Cc2ccc(-c3noc(C(F)(F)Cl)n3)s2)c1` [I.02] came in with a LogP under setting [1] of 3.81.
Consider `COC(C)C(=O)N(Cc1ccc(-c2noc(C(F)(F)Cl)n2)cc1)OC` (stereo not shown) [1.05, N-(4-{5-[chloro(difluoro)methyl]-1,2,4-oxadiazol-3-yl}benzyl)-N,2-dimethoxypropan-amide], for which the chromatographic logP was found to be 3.31 under setting [1] and 3.31 under setting [2].
With `Cc1ccc(C(N)=NO)s1` [N'-hydroxy-5-methylthiophene-2-carboximidamide], under “[Method B] as printed in the preparation examples (taken as method [b], neutral range, 0.001 molar ammonium acetate)”, the chromatographic logP came out at 1.17.
In the case of `CCOC(=O)c1cnn(Cc2ccc(-c3noc(C(F)(F)Cl)n3)cc2F)c1` [I.01], the LogP under setting [1] turned out to be 3.98.
Regarding `CCOC(=O)c1cnn(Cc2ccc(-c3noc(C(F)(F)Cl)n3)s2)c1` [1.02, ethyl 1-[(5-{5-[chloro(difluoro)methyl]-1,2,4-oxadiazol-3-yl}-2-thienyl)methyl]-1H-pyrazole-4-carboxylate], under setting [2], the chromatographic logP is 3.81.
Regarding `Fc1cc(-c2noc(C(F)(F)Cl)n2)ccc1CBr` [VIII'-a, 3-[4-(bromomethyl)-3-fluorophenyl]-5-[chloro(difluoro)methyl]-1,2,4-oxadiazole], the chromatographic logP is 4.66 under setting [1] and 4.66 under setting [2].
With `CONC(=O)N(Cc1ccc(-c2noc(C(F)(F)Cl)n2)cc1)OC` [1.04, 1-(4-{5-[Chloro(difluoro)methyl]-1,2,4-oxadiazol-3-yl}benzyl)-1,3-dimethoxyurea], the chromatographic logP was found to be 2.92 under setting [1] and 2.92 under setting [2].
Regarding `FC(F)(Cl)c1nc(-c2ccc(CBr)s2)no1` [VIII'-b, 3-[5-(bromomethyl)-2-thienyl]-5-[chloro(difluoro)methyl]-1,2,4-oxadiazole], the chromatographic logP is, setting by setting: under setting [1], 4.2; under setting [2], 4.2.
On to `Cc1ccc(-c2noc(C(F)(F)Cl)n2)cc1` [X-b, 3-(4-Methylphenyl)-5-(chlorodifluoromethyl)-1,2,4-oxadiazole], for which the chromatographic logP runs as follows: under setting [1], 4.55; under setting [2], 4.55.
`Cc1ccc(-c2noc(C(F)(F)Cl)n2)s1` [X-a, 5-[chloro(difluoro)methyl]-3-(5-methyl-2-thienyl)-1,2,4-oxadiazole]: the chromatographic logP was found to be 4.18 under setting [1] and 4.18 under setting [2].
As for `C#Cc1ccn(Cc2ccc(-c3noc(C(F)(F)Cl)n3)cc2)n1` [1.03, 5-[chloro(difluoro)methyl]-3-{4-[(3-ethynyl-1H-pyrazol-1-yl)methyl]phenyl}-1,2,4-oxadiazole], the chromatographic logP reads like this: under setting [1], 3.31; under setting [2], 3.81.
